Test results from patent US11717553B2, “Combined plant extract for getting rid of mites and acne and preparation method and use thereof” (Nanjing Institute for Comprehensive Utilization of Wild …, priority 2020, dated 2023).
Like-named read-outs stand apart in the source and are kept apart here.

Experiments:
human follicle mites [1] = experiment: In vitro experiment of mite elimination by combined plant extracts and single plant extracts (Example 4); settings: 4 h
From the text: (§1) Mites for experiments: follicle mites were obtained with a transparent tape sticking overnight. Specifically, subjects were required to clean their face thoroughly and stick a transparent tape which is 6 cm long and 1.5 cm wide to their foreheads, cheeks, noses, chins or other sites before going to bed. The tape was peeled off the next day, stuck on a glass slide and observed under a microscope.
Preparation of samples to be tested: a total of 7 samples of combined plant extracts and single plant extracts prepared according to Examples 1-3 and Comparative Examples 1-4, were sequentially denoted as samples no. 1-7 to be tested, and diluted with deionized water to a 25% concentration for later use.
1.2.1 Test groups: the test solutions were denoted as no. 1-7 sequentially, a 2% metronidazole solution was used as the positive control group, and liquid paraffin was used as the blank control group. 10 follicle mites were included in each group. […]
(§2) 1.2.2 Observation method: a micropipette was used to draw 200 μL of an agent solution and drop it on a slide. […] The tapes where follicle mites were detected were stuck on the slides to allow sufficient contact of the solution and the mites. […]
(§3) 1.2.3 Determination of death: the mites whose limbs or feet were immobile under a 400× microscope for 1 min were initially determined to be dead, and those who still immobile after 30 min were diagnosed as dead. […]

human follicle mites [2] = settings: 4 h
From the text: as §1
Preparation of samples to be tested: The combined plant extract prepared according to Example 1 was diluted with deionized water to obtain final concentrations of 100%, 50%, 25%, 12.5%, 6.25%, and 3.125% for later use.
1.2.1 Test groups: the combined plant extract to be tested was divided into 6 concentration gradient groups, a 2% metronidazole solution was used as the positive control group, and liquid paraffin was used as the blank control group. 10 follicle mites were included in each group. […]
as §2, §3

**Q.** `Cc1ncc([N+](=O)[O-])n1CCO` [Metronidazole, metronidazole] was tested. Which “Corrected mortality rate (%) ± SE” value (human follicle mites [1]) did it give?
**A.** 56.73 ± 4.07%

**Q.** And the “Corrected mortality rate (%) ± SE” value (human follicle mites [2])?
**A.** 54.66 ± 4.38%
